These results are taken from patent US4648996A, “Phenyl substituted-2,4,6,8-nonatetraenoic acid” (Hoffmann-La Roche Inc., priority 1985, dated 1987).

Data set [1] relates to adjuvant arthritis in rats. Kind of data set: Chronic adjuvant arthritis test (Table I). Format: in vivo, male Charles River Lewis rats. Conditions: for change in vivo at 75 µmol/kg / change in vivo at 96 µmol/kg / change in vivo at 76 µmol/kg / change in vivo at 60 µmol/kg: Rattus norvegicus, 552 h, day 23; for Body Weight Gain: vehicle 28-31. The procedure: That the compounds of this invention are effective anti-arthritic agents can be seen from the results obtained when these compounds are administered to rats in accordance with the chronic adjuvant arthritis test system disclosed in Billingham and Davies "Handbook of Experimental Pharmacology" (editors J. R. Vane and S. H. Ferreira) Vol. 50/II, pg. 108-144, Springer-Verlag, Berlin, 1979).
In this procedure, adjuvant arthritis was induced by the subplantar injection on day 0 of 0.05 ml of adjuvant [a suspension of heat-killed, dessicated Mycobacterium butyricum, 0.5% (w/v), in heavy mineral oil containing 0.2% digitonin] into the right hind paw of male Charles River Lewis rats (120-140 g) that were housed individually and given food and water ad lib. Paw volumes (both hind paws) were measured immediately after injection of the adjuvant. Paw Volumes were also measured, to follow the development of inflammation-induced swelling in the arthritic paws, at intervals of 3 to 7 days by immersion of the paw to the level of the lateral malleolus in a mercury plethysmograph.
Drugs were administered once a day (starting on the day of adjuvant injection) by […] using Tween 80 (polyoxyethylene sorbitan mono-oleate) at a dose of 0.25 ml/100 g body weight as the vehicle. Arthritic control rats received daily doses of the vehicle only. On day 23-25, the rats were sacrificed, plasma collected and plasma fibrinogen levels determined (ammonium sulfate turbidimetric method) as described by Exner et al., Amer. J. Clin Path, 71:521-527 (1979). Anti-inflammatory activity of the test drugs were determined by comparing the extent of paw swelling (paw volume on a particular day, i.e. day four to day twenty-five, minus the paw volume on day 0) in drug-treated arthritic rats with the extent of paw swelling in the vehicle-treated arthritic rats. Drug induced decreases in the level of plasma fibrinogen, an acute phase protein that is elevated in the plasma of rats with adjuvant-induced arthritis, were also used to quantitate the anti-inflammatory activity.

Data set [2] concerns impregnated sponge granuloma in the rat. In words: Impregnated sponge granuloma test in the rat. It is filed as in vivo, AHH/R female rats (PVG derived). How it is done:
AHH/R female rats (PVG derived) with an initial weight range of 120-140 g. were used.
Sponge preparation. Pellets (6.5 mm diameter) were punched from cellulose sponge cloth ("Wettex") and 0.1 ml. of a suspension containing 0.5 mg.ml^-1 of heat killed M. tuberculosis (human strains C, DT and PN) in sterile saline was applied to each pellet. The pellets were dried, weighed and autoclaved.
Rats were randomly divided into groups of five and daily dosing with test compounds was commenced. After the fifth dose the rats were anaesthetised with Sagatal (45 mg.kg^-1 i.p.) the backs were shaved and two pellets were implanted subcutaneously (one each side) into each rat through a small dorsal midline incision. The incision was closed and the rats allowed to recover from the anaesthetic.
Seven days after implantation the rats were killed and the pellets were removed, dissected free of extraneous tissue and weighed. Each pellet was then placed in a 4 ml aliquot of distilled water, chopped with fine scissors and sonicated. After centrifugation the Na^+ and K^+ content of the supernatant was determined by flame photometry. In addition the adrenal and thumus glands from each rat were dissected out and weighed and the lower hind limbs were removed for measurement of tibial bone breaking strain. Body weights were also recorded throughout the test period.
The mean ± SE for each of the parameters was calculated and differences from the control values were determined by Student's t test (2-tailed). Percentage reductions of granuloma weight, Na^+ and K^+ content and percentage changes of adrenal and thymus, weight and tibial breaking strain were determined.

The subject of data set [3] is adjuvant arthritis in the rat. In words: Developing adjuvant arthritis in the rat. Format: in vivo, AHH/R Female rats (PVG derived). The note with it: 15 mg.kg^-1 p.o. The procedure:
AHH/R Female rats (PVG derived with an initial weight range of 110 to 140 g. were used.
Adjuvant for injection. An homogenized suspension of heat killed M tuberculosis (Human strains C, DT and PN), 5 mg.Ml^-1 in liquid paraffin was prepared.
Rats were randomly split into groups of five and adjuvant arthritis was induced by the sub-plantar injection of 0.1 ml of adjuvant suspension into the right hind paw of each rat. Test compounds were administered by intubation each morning commencing the day of adjuvant injection. Two groups of control rats were dosed with the vehicle as was a group of three normal rats included for comparative purposes. Dosing was carried out daily until the end of the test on day 15 except for the first weekend (days 5 & 6). Treatment groups are shown in Table III and include etretinate as standard retinoid.
Measurements of right hind paw volume were made initially and on days 2 and 4 after and adjufant injection (primary phase). Right and left hind paw volume were then measured, on day 8 and every two or three days until the end of the experiment on day 15 (secondary phase). At this time the mobility of each ankle joint and the incidence and severity of secondary lesions on nose, ears, forepaws, left hind paw and tail were also assessed in terms of degrees of flexion possible and by using an arbitrary scoring system, respectively.
The time course curves for the injected paws were integrated from days 0 to 4 to reflect primary swelling and from days 8 to 15 (secondary swelling). The secondary swelling in the non-injected paw was integrated similarly from days 8 to 15. Calculations were carried out using a specific computer program which computed mean ± se for each integrated area. The significance of differences from controls was determined by Student's t test (2 tailed) and percentage reductions from control areas were calculated. Percentage improvements in joint mobility and percentage reductions in lesion score were also determined. In the latter case the Wilcoxon rank sum test (2 tailed) was used to express the difference from the control score using raw data. Mean body weight change in each group was recorded.

For data set [4], the system named is MBSA delayed hypersensitivity in mice. In words: Delayed hypersensitivity to methylated bovine serum albumin (MBSA). It is filed as in vivo, Male and female MFI mice substrain E33. Conditions: 10 mg.kg^-1 oral. The procedure: Male and female MFI mice substrain E33. Initial weight approximately 25 gm.
Dosing with vehicle and retinoid commenced on day 0 and finished on day 9.
Each group consisted of 4 male and 6 female mice (separately caged). Drugs were dosed orally at a dose volume of 10 ml.kg^-1 (10 doses).

For data set [5], the system named is established adjuvant arthritis in rats. Kind of data set: Effect on the course of established adjuvant arthritis. It is filed as in vivo, Male Lewis rats from Charles River. The note with it: 1 mg/kg, 7 days. The procedure:
Male Lewis rats from Charles River were used for these experiments.
Heat-killed, dessicated Mycobacteriam butyricum.
Adjuvant arthritis was induced by the injection of 0.1 ml of adjuvant [a suspension of heat-killed, dessicated Mycobacterium butyricum, 0.5% CW/V) in heavy mineral oil containing 0.2% digitonin] into the base of the tail. The arthritis was allowed to develop for 21 days and then the volume of both hind paws were measured using a mercury plethysmograph. The rats were divided into groups of 8 with equal mean paw volumes and then the rats were treated with Compound A, indomethacin (as a control drug), or vehicle for 7 days at the end of the treatment period, the volumes of both hind paws were again measured to assess antiinflammatory effects. Body weight changes were also followed and, at the end of the experiment, plasma was collected for determination of plasma fibrinogen (Exner et. al., Amer. J. Clin. Path, 71: 521-527).
^b Drugs were administered once a day for 7 days by intubation
^c Change in paw volume/body weight equals paw volume body weight on […]

Setting [6] is: oral 75 μMol/Kg, read-out: % Reduction in Paw Volume, Left.
[7] abbreviates: oral 75 μMol/Kg, read-out: % Reduction in Paw Volume, Right.

Like-named read-outs stand apart in the source and are kept apart here.

On to `CCCCCCCCCOc1ccc(OC)cc1/C=C/C(C)=C/C=C/C(C)=C/C(=O)O`, for which the change in vivo at 75 µmol/kg in data set [1] (setting [6]) was -24%. Moreover, the change in vivo at 75 µmol/kg in data set [1] (setting [7]) is -27%. For the same compound, in data set [1] (oral 75 μMol/Kg), the “Plasma fibrinogen % change (reduction)” value was -21% and the “Body Weight Gain” value is reported as “+27 g”.
For `CCCCCCCCNc1ccccc1/C=C/C(C)=C/C=C/C(C)=C/C(=O)OCC`, the change in vivo at 75 µmol/kg in data set [1] (setting [6]) and in data set [1] (setting [7]) was -53% each time. In addition, the “Body Weight Gain” value in data set [1] (oral 75 μMol/Kg) is listed as “+24 g”.
Take `CCCCCCCCCOc1cccc(Cl)c1/C=C/C(C)=C/C=C/C(C)=C/C(=O)O`: the change in vivo at 75 µmol/kg in data set [1] (setting [6]) was -32%; in data set [1] (setting [7]), -29%. The “Body Weight Gain” value in data set [1] (oral 75 μMol/Kg) is recorded as “+35 g”.
Take `CC(/C=C/c1ccccc1OCCCCCCCCO)=C\C=C\C(C)=C\C(=O)O`: the change in vivo at 96 µmol/kg in data set [1] (oral 96 μMol/Kg, read-out: % Reduction in Paw Volume, Left) is -49%. Moreover, the change in vivo at 96 µmol/kg in data set [1] (oral 96 μMol/Kg, read-out: % Reduction in Paw Volume, Right) was -37%. In data set [1] (oral 96 μMol/Kg), the “Plasma fibrinogen % change (reduction)” value is -35% and the “Body Weight Gain” value is on record as “+27 g”.
Regarding `CCCCCCCCCOc1cccc(F)c1/C=C/C(C)=C/C=C/C(C)=C/C(=O)O`, in data set [1] (setting [6]), the change in vivo at 75 µmol/kg was -68%. Also, in data set [1] (setting [7]), the change in vivo at 75 µmol/kg was -56%. Moreover, in data set [1] (oral 75 μMol/Kg), the “Plasma fibrinogen % change (reduction)” value was -51% and the “Body Weight Gain” value was “+46 g”.
`C[C@@H]1C[C@H]2[C@@H]3CCC4=CC(=O)C=C[C@]4(C)[C@@]3(F)[C@@H](O)C[C@]2(C)[C@@]1(O)C(=O)CO` [Dexamethasone]: in data set [2] (0.5 mg.kg^-1 sc), the “% reduction of granuloma K+” value was found to be 75.2%, the “% reduction of granuloma Na+” value is listed as 51.2% and the “% reduction of granuloma Wet weight” value is 65.5%.
Regarding `CCOC(=O)/C=C(C)/C=C/C=C(C)/C=C/c1c(C)cc(OC)c(C)c1C` [Etretinate, reference compound], in data set [2] (15 mg.kg^-1 p.o.), the “% change in adrenal weight” value is listed as “+22.9%”, the “% change in thymus weight” value is listed as “+15.2%”, the “% change in tibial breaking strains” value is recorded as -4.6% and the “% reduction of granuloma K+” value is given as -3.9%. Besides, in data set [2] (15 mg.kg^-1 p.o.), the “% reduction of granuloma Na+” value came out at 5.9%, the “% reduction of granuloma Wet weight” value came out at 2.7% and the “Body Weight change” value is “+13.3 ± 2.6 g”. For the same compound, in data set [2] (15 mg.kg^-1 p.o., 2 control rats also died), the “rats that died under anaesthesia” value was found to be 1 rat. For the same compound, in data set [3], the “Body Weight Change Days 0-15” value is given as “+1.0 g” and the “Body Weight Change Days 8-15” value is on record as -5.0 g. Further, in data set [3] (day 15), the “Joint Mobility (% INC)” value is 50% and the “Lesion Score (% RDN)” value turned out to be 56%. Also, the “% reduction of paw swelling, Primary (right)” value in data set [3] (days 0-4) turned out to be 9%. In addition, in data set [3] (days 8-15), the “% reduction of paw swelling, Secondary (left)” value is 67% and the “% reduction of paw swelling, Secondary (right)” value turned out to be 30%. Further, in data set [4] (10 doses), the “% increase paw volume” value turned out to be 59 ± 9% and the “% reduction (cf. arachis oil control)” value stood at 46%. Moreover, in data set [4] (female (F)), the “Mean body weight change” value was -2.0 g. The “Mean body weight change” value in data set [4] (male (M)) is given as -0.8 g.
Turning to `COc1ccc2c(c1)c(CC(=O)O)c(C)n2C(=O)c1ccc(Cl)cc1` [Indomethacin, reference compound], the “Plasma fibrinogen % change (reduction)” value in data set [1] (oral 3 μMol/Kg) is -30%. For the same compound, the “Plasma Fibrinogen” value in data set [5] is 978 ± 100 mg/dL. The “Change in Body Weight” value in data set [5] (day 28 minus day 22) turned out to be 25.6 ± 3.1 g. Moreover, the “Change in Paw Volume” value in data set [5] (day 28 minus day 22, both hind paws) is -1.22 ± 0.15 mL.
Turning to `CCCCCCCCCOc1ccccc1/C=C/C(C)=C/C=C/C(C)=C/C(=O)O` [drawing 5], the change in vivo at 76 µmol/kg in data set [1] (oral 76 μMol/Kg, read-out: % Reduction in Paw Volume, Left) was -58%. For the same compound, in data set [1] (oral 76 μMol/Kg, read-out: % Reduction in Paw Volume, Right), the change in vivo at 76 µmol/kg was -43%. In data set [1] (oral 76 μMol/Kg), the “Plasma fibrinogen % change (reduction)” value is -55% and the “Body Weight Gain” value is recorded as “+27 g”.
Turning to `CC1=C(/C=C/C(C)=C/C=C/C(C)=C\C(=O)O)C(C)(C)CCC1` [reference compound], the change in vivo at 60 µmol/kg in data set [1] (oral 60 μMol/Kg, read-out: % Reduction in Paw Volume, Left) was -49%. Moreover, in data set [1] (oral 60 μMol/Kg, read-out: % Reduction in Paw Volume, Right), the change in vivo at 60 µmol/kg is -33%. Besides, in data set [1] (oral 60 μMol/Kg), the “Plasma fibrinogen % change (reduction)” value is reported as -18% and the “Body Weight Gain” value is given as -7 g.
